Data set [1] deals with CRL-2813 human melanoma cells. The data set is described as follows: Cell proliferation SRB assay, CRL-2813. The format is cell-based. The procedure:
Reduced availability of the ternary complex causes inhibition of translation initiation and thereby of cell proliferation. […] The effects of N,N′-diarylureas on the proliferation KLN mouse squamous cell carcinoma, CRL-2351 human breast, CRL-2813 human melanoma, A549 human lung and PC-3 human prostate cancer cell lines were tested. […]
(§1) Cell Growth Assay: Cell Growth was Measured by the SRB Assay.

For data set [2], the system named is CRL-2351 human breast cancer cells. The data set is described as follows: Cell proliferation SRB assay, CRL-2351. The note with it: Homo sapiens. In kind it is cell-based. The procedure:
(§2) Reduced availability of the ternary complex causes inhibition of translation initiation and thereby of cell proliferation. […] The effects of N,N′-diarylureas on the proliferation KLN mouse squamous cell carcinoma, CRL-2351 human breast, CRL-2813 human melanoma, A549 human lung and PC-3 human prostate cancer cell lines were tested.
as §1

For data set [3], the system named is KLN mouse squamous cell carcinoma cells. The data set is described as follows: Cell proliferation SRB assay, KLN. In kind it is cell-based. The procedure: as §2, §1
Data set [4] deals with eIF2.GTP.Met-tRNAi ternary complex. Kind of data set: ATF-4 assay (firefly/renilla luciferase ratio) in CRL-2351 cell line. The format is cell-based, human. The note with it: for maximal fold induction / EC (activity threshold of 5): Homo sapiens; for maximal fold induction: read-out: ATF-4 Amax: maximal activity, ratio of firefly over renilla luciferase expression; for EC (activity threshold of 5): read-out: ATF-4 C[5] (μM): concentration corresponding to an activity threshold of 5; for Cmax: read-out: ATF-4 Cmax (μM): concentration corresponding to the maximal activity. The text has this: For example, reducing amount of the ternary complex increases translation of ATF-4, which results in elevated expression of CHOP mRNA and protein. Therefore, expression of endogenous CHOP mRNA and CHOP protein in KLN-tTA/pBISA-DL^(ATF-4) cells were utilized as secondary assays to validate N,N′-diarylurea compounds as modifiers of the eIF2.GTP.Met-tRNAi ternary complex. […] To rule out the possibility that the activity of N,N′-diarylurea compounds was confined to a single cell type, the effects of these compounds on the ternary complex assay and the expression of CHOP mRNA was assayed in CRL-2351, PC-3, CRL-2813 human breast, prostate, and melanoma cancer cell lines respectively. For the reporter gene assay, the three human cell lines were co-transfected with tTA expression vector and the pBISA-DL^(ATF-4) dual luciferase expression vector shown in FIG. 6. […] The expression of CHOP mRNA was assayed by real time PCR in the same cell lines treated with 5 or 20 μM of each compound.
Stable and transient transfection: Cells were seeded at the density of 10^5 in 60-mm (stable transfection) or 10^4 cells per well of 96-well plate (transient transfection) plates and transfected one day later using the Qiagen Transfectamine transfection kit. For selection of stable cell lines, transfected cells were transferred to 100-mm plates and selected with appropriate antibiotics.
Dual luciferase assay: Cells or minced tumors expressing firefly and renilla luciferases were lysed and the extracts assayed with a glow type dual luciferase assay kit, per manufacturer's instruction (Promega Inc., Madison, Wis.).

The test system of data set [5] is A549 human lung cancer cells. Kind of data set: Cell proliferation SRB assay, A549. The format is cell-based. The note with it: read-out: IC50 (μM), concentration that inhibits cell proliferation by 50%. How it is done: as §2, §1
The mark [6] stands for this setting: CRL2813, 2813 cells, read-out: IC50 (μM) by SRB assay, 2813.
Setting [7] is: 2351 cells, read-out: IC50 (μM) by SRB assay, 2351.
[8] abbreviates: KLN cells, read-out: IC50 (μM) by SRB assay, KLN.

Results on 20 compounds are retold here after patent publication US9421211B2, “N,N′-diarylurea compounds and N,N′-diarylthiourea compounds as inhibitors of translation initiation” (President and Fellows of Harvard College, priority 2009, dated 2016).

Where two headings read alike, the source gives them in different places.

With `O=C(Nc1ccc(Cl)c(Cl)c1)Nc1ccc(Cl)c(Cl)c1` [Compound 1, 1,3-bis(3,4-dichlorophenyl)urea], the IC50 in data set [1] (setting [6]) was 0.8 µM; in data set [2] (setting [7]) it was 2.6 µM; in data set [3] (setting [8]) it was greater than 20 µM. Also, in data set [4], the maximal fold induction came to 11. Besides, the EC (activity threshold of 5) in data set [4] came to 2 µM. For the same compound, the Cmax in data set [4] turned out to be 5 µM.
Turning to `O=C(Nc1ccc(Cl)c(C(F)(F)F)c1)Nc1ccc(Cl)c(C(F)(F)F)c1` [Compound 2, 1,3-bis[4-chloro-3-(trifluoromethyl)phenyl]urea], the IC50 in data set [1] (setting [6]) amounted to 1.7 µM. Moreover, the IC50 in data set [2] (setting [7]) was 2.8 µM. Also, in data set [4], the maximal fold induction was determined as 11, the EC (activity threshold of 5) was 1.5 µM and the Cmax turned out to be 2.5 µM.
For `O=C(Nc1cc(C(F)(F)F)cc(C(F)(F)F)c1)Nc1cc(C(F)(F)F)cc(C(F)(F)F)c1` [Compound 3, 1,3-bis[3,5-bis(trifluoromethyl)phenyl]urea], in data set [1] (setting [6]), the IC50 was 0.1 µM. In data set [2] (setting [7]), the IC50 was 0.6 µM. Also, the IC50 in data set [3] (setting [8]) amounted to 3.9 µM. In data set [4], the maximal fold induction stood at 11, the EC (activity threshold of 5) was 1.5 µM and the Cmax amounted to 2.5 µM.
Consider `Cc1ccc(NC(=O)Nc2ccc(Cl)c(Cl)c2)cc1O` [Compound 4, 3-(3,4-dichlorophenyl)-1-(3-hydroxy-4-methylphenyl)urea], for which the IC50 in data set [1] (setting [6]) worked out at 1.8 µM. Moreover, in data set [2] (setting [7]), the IC50 came out at 9 µM. In addition, the IC50 in data set [3] (setting [8]) was greater than 20 µM. Also, in data set [4], the maximal fold induction turned out to be 13, the EC (activity threshold of 5) amounted to 11 µM and the Cmax was 20 µM.
`Cc1ccc(NC(=O)Nc2ccc(Cl)c(C(F)(F)F)c2)cc1O` [Compound 5, 3-[4-chloro-3-(trifluoromethyl)phenyl]-1-(3-hydroxy-4-methylphenyl)urea]: the IC50 is 1.6 µM in data set [1] (setting [6]), 9.3 µM in data set [2] (setting [7]) and 20 µM in data set [3] (setting [8]). Moreover, the maximal fold induction in data set [4] was determined as 11. Also, the EC (activity threshold of 5) in data set [4] amounted to 6 µM. Besides, in data set [4], the Cmax stood at 10 µM.
`Cc1ccc(NC(=O)Nc2cc(C(F)(F)F)cc(C(F)(F)F)c2)cc1O` [Compound 6, 3-[3,5-bis(trifluoromethyl)phenyl]-1-(3-hydroxy-4-methylphenyl)urea]: the IC50 worked out at 1 µM in data set [1] (setting [6]), 3.2 µM in data set [2] (setting [7]) and 13.5 µM in data set [3] (setting [8]). Further, the maximal fold induction in data set [4] came out at 13. Besides, the EC (activity threshold of 5) in data set [4] was found to be 3 µM. In data set [4], the Cmax was 5 µM.
On to `COc1cc(NC(=O)Nc2ccc(Cl)c(Cl)c2)ccc1C` [Compound 7], for which the values for the IC50 in data set [1] (setting [6]), in data set [2] (setting [7]) and in data set [3] (setting [8]) were greater than 20 µM, 11 µM and greater than 20 µM, respectively.
For `COc1cc(NC(=O)Nc2ccc(Cl)c(C(F)(F)F)c2)ccc1C` [Compound 8], the IC50 in data set [1] (setting [6]) is 3 µM. Further, the IC50 in data set [2] (setting [7]) came to 2.5 µM. In addition, in data set [3] (setting [8]), the IC50 came to 17.2 µM. In data set [4], the maximal fold induction came to 8, the EC (activity threshold of 5) came to 3 µM and the Cmax worked out at 10 µM.
In the case of `COc1cc(NC(=O)Nc2cc(C(F)(F)F)cc(C(F)(F)F)c2)ccc1C` [Compound 9], the IC50 in data set [1] (setting [6]) was determined as 0.7 µM. For the same compound, the IC50 in data set [2] (setting [7]) worked out at 2.2 µM. The IC50 in data set [3] (setting [8]) worked out at 20 µM. Besides, in data set [4], the maximal fold induction worked out at 12, the EC (activity threshold of 5) was less than 2.5 µM and the Cmax was determined as 20 µM.
For the compound `Cc1ccc(NC(=O)Nc2ccc(Cl)c(Cl)c2)cc1OCCN(C)C` [Compound 11, 3-(3,4-dichlorophenyl)-1-{3-[2-(dimethylamino)ethoxy]-4-methylphenyl}urea], the IC50 in data set [1] (setting [6]) came out at 5.3 µM; in data set [2] (setting [7]) it was 5.8 µM; in data set [3] (setting [8]) it was 13.5 µM. The maximal fold induction in data set [4] turned out to be 7.5. In data set [4], the EC (activity threshold of 5) turned out to be 8 µM. The Cmax in data set [4] was 20 µM.
Consider `Cc1ccc(NC(=O)Nc2ccc(Cl)c(C(F)(F)F)c2)cc1OCCN(C)C` [Compound 12, 3-[4-chloro-3-(trifluoromethyl)phenyl]-1-{3-[2-(dimethylamino)ethoxy]-4-methylphenyl}urea], for which, in data set [1] (setting [6]), the IC50 came to 2.8 µM. Moreover, the IC50 in data set [2] (setting [7]) came out at 2.5 µM. For the same compound, the IC50 in data set [3] (setting [8]) is 12.3 µM. In addition, in data set [4], the maximal fold induction was determined as 7, the EC (activity threshold of 5) worked out at 7 µM and the Cmax was found to be 10 µM.
Take `Cc1ccc(NC(=O)Nc2cc(C(F)(F)F)cc(C(F)(F)F)c2)cc1OCCN(C)C` [Compound 13, 3-[3,5-bis(trifluoromethyl)phenyl]-1-{3-[2-(dimethylamino)ethoxy]-4-methylphenyl}urea]: the IC50 in data set [2] (setting [7]) is 2.9 µM. Also, the IC50 in data set [3] (setting [8]) was 12.4 µM. For the same compound, in data set [4], the maximal fold induction turned out to be 12.5, the EC (activity threshold of 5) amounted to 5 µM and the Cmax came to 10 µM.
`Cc1ccc(NC(=O)Nc2ccc(Cl)c(Cl)c2)cc1OCCN1CCOCC1` [Compound 15, 3-(3,4-dichlorophenyl)-1-{4-methyl-3-[2-(morpholin-4-yl)ethoxy]phenyl}urea]: the IC50 in data set [2] (setting [7]) was determined as 2.4 µM. Further, the IC50 in data set [3] (setting [8]) amounted to 20 µM. In data set [4], the maximal fold induction was found to be 5.5, the EC (activity threshold of 5) was found to be 9 µM and the Cmax came to 10 µM.
As for `Cc1ccc(NC(=O)Nc2ccc(Cl)c(C(F)(F)F)c2)cc1OCCN1CCOCC1` [Compound 16, 3-[4-chloro-3-(trifluoromethyl)phenyl]-1-{4-methyl-3-[2-(morpholin-4-yl)ethoxy]phenyl}urea], in data set [1] (setting [6]), the IC50 worked out at 0.9 µM. In addition, in data set [2] (setting [7]), the IC50 is 2.7 µM. In data set [3] (setting [8]), the IC50 is greater than 20 µM. In addition, in data set [4], the maximal fold induction amounted to 7, the EC (activity threshold of 5) amounted to 7 µM and the Cmax was determined as 10 µM.
For `Cc1ccc(NC(=O)Nc2cc(C(F)(F)F)cc(C(F)(F)F)c2)cc1OCCN1CCOCC1` [Compound 17, 3-[3,5-bis(trifluoromethyl)phenyl]-1-{4-methyl-3-[2-(morpholin-4-yl)ethoxy]phenyl}urea], the IC50 is 0.8 µM in data set [1] (setting [6]), 2.3 µM in data set [2] (setting [7]) and 18.6 µM in data set [3] (setting [8]). Further, in data set [4], the maximal fold induction is 9. In data set [4], the EC (activity threshold of 5) was 3 µM. Moreover, the Cmax in data set [4] is 10 µM.
With `Cc1ccc(NC(=O)Nc2ccc(Cl)c(Cl)c2)cc1OCCN1CCNCC1` [Compound 23, 4-[2-(5-{[(3,4-dichlorophenyl)carbamoyl]amino}-2-methylphenoxy)ethyl]piperazine-1,4-diium dichloride], in data set [1] (setting [6]), the IC50 worked out at 5.1 µM. Further, in data set [2] (setting [7]), the IC50 was 4.5 µM. Besides, the IC50 in data set [3] (setting [8]) is greater than 20 µM. Also, in data set [4], the maximal fold induction was 7.5, the EC (activity threshold of 5) amounted to 7 µM and the Cmax is 10 µM.
As to `Cc1ccc(NC(=O)Nc2cc(C(F)(F)F)cc(C(F)(F)F)c2)cc1OCCN1CCNCC1` [Compound 25, 4-{2-[5-({[3,5-bis(trifluoromethyl)phenyl]carbamoyl}amino)-2-methylphenoxy]ethyl}piperazine-1,4-diium dichloride], the IC50 in data set [1] (setting [6]) came out at 3.1 µM. Further, in data set [2] (setting [7]), the IC50 stood at 5.2 µM. Further, in data set [4], the maximal fold induction stood at 10, the EC (activity threshold of 5) was determined as 6 µM and the Cmax was found to be 10 µM.
For the compound `O=C(Nc1ccc(Cl)c(Cl)c1)Nc1ncccc1O` [Compound 26], the figures for the IC50 in data set [1] (setting [6]), in data set [2] (setting [7]) and in data set [3] (setting [8]) were 1.8 µM, 2 µM and greater than 20 µM, respectively. Besides, the maximal fold induction in data set [4] amounted to 12. The EC (activity threshold of 5) in data set [4] was 13 µM. In data set [4], the Cmax worked out at 40 µM.
Regarding `O=C(Nc1ccc(Cl)c(C(F)(F)F)c1)Nc1ncccc1O` [Compound 27], the IC50 in data set [1] (setting [6]) is 0.8 µM. Further, in data set [2] (setting [7]), the IC50 is 1.2 µM. In data set [3] (setting [8]), the IC50 is 12.5 µM. Also, in data set [4], the maximal fold induction is 6.5, the EC (activity threshold of 5) came out at 10 µM and the Cmax came to 40 µM.
Consider `O=C(Nc1ccc(Cl)c(Cl)c1)Nc1cc([N+](=O)[O-])ccc1Cl` [Compound 1527], for which the IC50 was 20 µM in data set [1] (CRL2813, CRL-2813, read-out: IC50 (μM), concentration that inhibits cell proliferation by 50%); 9.5 µM in data set [2] (CRL-2351, read-out: IC50 (μM), concentration that inhibits cell proliferation by 50%); greater than 20 µM in data set [5]; greater than 20 µM in data set [3] (KLN, read-out: IC50 (μM), concentration that inhibits cell proliferation by 50%).
